# Like-named read-outs stand apart in the source and are kept apart here.
# Experiments:
# Assay in all cases: MIC, agar incorporation method
# S. epidermidis 358 = assay type: cell-based, Staphylococcus epidermidis; details: Staphylococcus epidermidis; S. No. 14, S. epidermidis 358; read-out: MIC
# S. pneumoniae ATCC 6303 = assay type: cell-based, Streptococcus pneumoniae; details: Streptococcus pneumoniae, ATCC6303
# S. pneumoniae 1256 = assay type: cell-based, Streptococcus pneumoniae; details: Streptococcus pneumoniae; S. No. 56, S. pneumoniae 1256; read-out: MIC
# Moraxella cata. M2 = assay type: cell-based; details: S. No. 59, Moraxella cata. M2; read-out: MIC
# S. aureus ATCC29213 = assay type: cell-based, Staphylococcus aureus; details: Staphylococcus aureus; S. No. 2, S. aureus ATCC29213; read-out: MIC
# S. pneumoniae AB 23 = assay type: cell-based, Streptococcus pneumoniae; details: Streptococcus pneumoniae, AB23
# S. pneumoniae AB 16 = assay type: cell-based, Streptococcus pneumoniae; details: Streptococcus pneumoniae, AB16
# S. aureus (MRSA) 21299 = assay type: cell-based, Staphylococcus aureus; details: Staphylococcus aureus; S. No. 5, S. aureus (MRSA) 21299; read-out: MIC
# [1] = tested on: Serratia marcescens 12999; assay type: cell-based; details: S. No. 29, Serratia marcescens 12999; read-out: MIC
# E. faecium 398(VRE) = assay type: cell-based, Enterococcus faecium; details: Enterococcus faecium; S. No. 22, E. faecium 398(VRE); read-out: MIC
# S. aureus (MRSA) 15187 = assay type: cell-based, Staphylococcus aureus; details: Staphylococcus aureus; S. No. 4, S. aureus (MRSA) 15187; read-out: MIC
# S. aureus SG 511 = assay type: cell-based, Staphylococcus aureus; details: Staphylococcus aureus, SG511
# S. epidermidis 823 = assay type: cell-based, Staphylococcus epidermidis; details: Staphylococcus epidermidis
# S. pneumoniae AB4 = assay type: cell-based, Streptococcus pneumoniae; details: Streptococcus pneumoniae; S. No. 33, S. pneumoniae AB4; read-out: MIC
# (MRSA) 562 = assay type: cell-based, Staphylococcus aureus; details: Staphylococcus aureus; S. No. 8, (MRSA) 562; read-out: MIC
# S. pneumoniae 217 = assay type: cell-based, Streptococcus pneumoniae; details: Streptococcus pneumoniae
# S. pneumoniae 1275 = assay type: cell-based, Streptococcus pneumoniae; details: Streptococcus pneumoniae; S. No. 57, S. pneumoniae 1275; read-out: MIC
# S. haemo ATCC 29970 = assay type: cell-based
# S. pneumoniae AB-2 = assay type: cell-based, Streptococcus pneumoniae; details: Streptococcus pneumoniae, AB2
# S. pneumoniae AB 17 = assay type: cell-based, Streptococcus pneumoniae; details: Streptococcus pneumoniae, AB17; S. No. 40, S. pneumoniae AB 17; read-out: MIC
# S. pyogenes 19615 = assay type: cell-based, Streptococcus pyogenes; details: Streptococcus pyogenes
# E. faecalis 29212 = assay type: cell-based; details: Enterococcus faecalis; S. No. 17, E. faecalis 29212; read-out: MIC
# E. durans 581 = assay type: cell-based; details: Enterococcus durans; S. No. 24, E. durans 581; read-out: MIC
# Moraxella M1 = assay type: cell-based; details: S. No. 58, Moraxella M1; read-out: MIC
# [2] = tested on: S. epidermidis ATCC 12228; assay type: cell-based, Staphylococcus epidermidis; details: Staphylococcus epidermidis, ATCC12228
# S. pneumoniae AB 30 = assay type: cell-based, Streptococcus pneumoniae; details: Streptococcus pneumoniae, AB30
# E. faecalis 21777 = assay type: cell-based; details: Enterococcus faecalis; S. No. 18, E. faecalis 21777; read-out: MIC
# E. coli 25922 = assay type: cell-based; details: Escherichia coli; S. No. 25, E. coli 25922; read-out: MIC
# S. pyogenes 25147 = assay type: cell-based, Streptococcus pyogenes; details: Streptococcus pyogenes
# [3] = tested on: S. epidermidis (MRSE)32965; assay type: cell-based, Staphylococcus epidermidis; details: Staphylococcus epidermidis
# S. pneumoniae 1251 = assay type: cell-based, Streptococcus pneumoniae; details: Streptococcus pneumoniae
# S. aureus (Smith 49951) = assay type: cell-based, Staphylococcus aureus; details: Staphylococcus aureus; S. No. 9, S. aureus (Smith 49951); read-out: MIC
# S. aureus (MRSA) ST450 = assay type: cell-based, Staphylococcus aureus; details: Staphylococcus aureus; S. No. 6, S. aureus (MRSA) ST450; read-out: MIC
# S. pneumoniae ATCC 49619 = assay type: cell-based, Streptococcus pneumoniae; details: Streptococcus pneumoniae, ATCC49619; S. No. 48, S. pneumoniae ATCC 49619; read-out: MIC
# Acinetobacter 9956 = assay type: cell-based; details: S. No. 30, Acinetobacter 9956; read-out: MIC
# S. pneumoniae AB 21 = assay type: cell-based, Streptococcus pneumoniae; details: Streptococcus pneumoniae, AB21
Structure (SMILES),MIC (S. epidermidis 358) [µg/mL],MIC (S. pneumoniae 1256) [µg/mL],MIC (Moraxella cata. M2) [µg/mL],MIC (S. aureus ATCC29213) [µg/mL],MIC (S. aureus (MRSA) 21299) [µg/mL],MIC [1] [µg/mL],MIC (E. faecium 398(VRE)) [µg/mL],MIC (S. aureus (MRSA) 15187) [µg/mL],MIC (S. pneumoniae AB4) [µg/mL],MIC ((MRSA) 562) [µg/mL],MIC (S. pneumoniae 1275) [µg/mL],MIC (S. pneumoniae AB 17) [µg/mL],MIC (E. faecalis 29212) [µg/mL],MIC (E. durans 581) [µg/mL],MIC (Moraxella M1) [µg/mL],MIC (E. faecalis 21777) [µg/mL],MIC (E. coli 25922) [µg/mL],MIC (S. aureus (Smith 49951)) [µg/mL],MIC (S. aureus (MRSA) ST450) [µg/mL],MIC (S. pneumoniae ATCC 49619) [µg/mL],also measured
"CC(=O)NC[C@H]1CN(c2ccc(N3CCN(c4ccc([N+](=O)[O-])s4)CC3)c(F)c2)C(=O)O1 [Compound No. 1, (S)—N-[[3-[3-Fluoro-4-[4-(5-nitro-2-thienyl)-1-piperazinyl]phenyl]-2-oxo-5-oxazolidinyl]methyl]acetamide]",0.25,0.25,0.25,0.25,0.25,> 16,0.25,0.25,0.06,0.25,0.06,0.06,0.25,0.25,1,0.25,> 16,0.25,0.25,0.06,MIC (S. pneumoniae ATCC 6303): 0.125 µg/mL; MIC (S. pneumoniae AB 23): 0.125 µg/mL; MIC (S. pneumoniae AB 16): 0.125 µg/mL; MIC (S. aureus SG 511): 0.125 µg/mL; MIC (S. epidermidis 823; 823): 0.125 µg/mL; MIC (S. pneumoniae 217; 217): 0.125 µg/mL; MIC (S. haemo ATCC 29970): 0.125 µg/mL; MIC (S. pneumoniae AB-2): 0.125 µg/mL; MIC (S. pyogenes 19615; 19615): 0.125 µg/mL; MIC [2]: 0.125 µg/mL; MIC (S. pneumoniae AB 30): 0.125 µg/mL; MIC (S. pyogenes 25147; 25147): 0.125 µg/mL; MIC ([3]; MRSE): 0.125 µg/mL; MIC (S. pneumoniae 1251; 1251): 0.125 µg/mL; MIC (Acinetobacter 9956): > 16 µg/mL; MIC (S. pneumoniae AB 21): 0.125 µg/mL
"CC(=O)NC[C@H]1CN(c2ccc(N3CCN(c4ccc(C=O)s4)CC3)c(F)c2)C(=O)O1 [Compound No. 2, (S)—N-[[3-[3-Fluoro-4-[4-(5-formyl-2-thienyl)-1-piperazinyl]phenyl]-2-oxo-5-oxazolidinyl]methyl]acetamide]",0.5,< 0.25,0.5,1,0.5,> 16,0.5,0.5,0.5,0.5,< 0.25,0.5,< 0.25,0.5,0.5,0.5,> 16,0.5,1,0.5,"MIC (S. pneumoniae ATCC 6303; S. No. 50, S. pneumoniae ATCC 6303, read-out: MIC): 0.5 µg/mL; MIC (S. pneumoniae AB 23; S. No. 43, S. pneumoniae AB 23, read-out: MIC): 0.5 µg/mL; MIC (S. pneumoniae AB 16; S. No. 39, S. pneumoniae AB 16, read-out: MIC): < 0.25 µg/mL; MIC (S. aureus SG 511; S. No. 3, S. aureus SG 511, read-out: MIC): 0.5 µg/mL; MIC (S. epidermidis 823; S. No. 12, S. epidermidis 823, read-out: MIC): 0.5 µg/mL; MIC (S. pneumoniae 217; S. No. 38, S. pneumoniae 217, read-out: MIC): 0.5 µg/mL; MIC (S. haemo ATCC 29970; S. No. 15, S. haemo ATCC 29970, read-out: MIC): 0.5 µg/mL; MIC (S. pneumoniae AB-2; S. No. 31, S. pneumoniae AB-2, read-out: MIC): < 0.25 µg/mL; MIC (S. pyogenes 19615; S. No. 51, S. pyogenes 19615, read-out: MIC): 0.5 µg/mL; MIC ([2]; S. No. 10, S. epidermidis ATCC 12228, read-out: MIC): 0.5 µg/mL; MIC (S. pneumoniae AB 30; S. No. 47, S. pneumoniae AB 30, read-out: MIC): 0.5 µg/mL; MIC (S. pyogenes 25147; S. No. 52, S. pyogenes 25147, read-out: MIC): 0.5 µg/mL; MIC ([3]; S. No. 13, S. epidermidis (MRSE)32965, read-out: MIC): < 0.25 µg/mL; MIC (S. pneumoniae 1251; S. No. 54, S. pneumoniae 1251, read-out: MIC): 0.5 µg/mL; MIC (Acinetobacter 9956): > 16 µg/mL; MIC (S. pneumoniae AB 21; S. No. 41, S. pneumoniae AB 21, read-out: MIC): 0.5 µg/mL"
